In the supplement of paper PMC6045584:
± gives the standard deviation of the averaged measurements.

Columns and labels:
YM155 = compound: COCC[n+]1c2c(n(Cc3cnccn3)c1C)C(=O)c1ccccc1C2=O [YM155]; experiment: area under dose-response curve of surviving fraction (unscaled, Aref=0) (surviving fraction x log10(nM)); higher = more resistant; details: exposure time: 5 days; dose range 0.5-1000 nM
Method in brief: (§1)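 Each tumour cell line was screened three times in 384-well plates, receiving eight inhibitor concentrations from 0.5 to 1000 nM for five days. CellTiter-Glo luminescence gave viability, normalised to DMSO-only wells. Using the drc R package, surviving fractions were fitted with 3-parameter logistic dose-response curves, and the unscaled activity area over log10 dose (Aref = 0) was taken as the area under the curve.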

CARBOPLATIN = compound: O=C(O)C1(C(=O)O)CCC1.[NH2-].[NH2-].[Pt+2] [CARBOPLATIN]; experiment: as above; details: exposure time: 5 days; dose range 0.5-1000 nM
Method in brief: as §1

CAMPTOTHECIN [1] = compound: T1, CC[C@@]1(O)C(=O)OCc2c1cc1n(c2=O)Cc2cc3ccccc3nc2-1 [CAMPTOTHECIN]; experiment: as above; details: exposure time: 5 days; dose range 0.5-1000 nM
Method in brief: as §1

CELECOXIB = compound: Cc1ccc(-c2cc(C(F)(F)F)nn2-c2ccc(S(N)(=O)=O)cc2)cc1 [CELECOXIB]; experiment: as above; details: exposure time: 5 days; dose range 0.5-1000 nM
Method in brief: as §1

OSI-906 = compound: C[C@]1(O)C[C@@H](c2nc(-c3ccc4ccc(-c5ccccc5)nc4c3)c3c(N)nccn32)C1 [OSI-906]; experiment: as above; details: exposure time: 5 days; dose range 0.5-1000 nM
Method in brief: as §1

[2] = compound: CC(=O)NCC(=O)N1[C@@H]2CC[C@H]1c1ccc(Nc3ncc(C(F)(F)F)c(NC4CCC4)n3)cc12; experiment: as above; details: exposure time: 5 days; dose range 0.5-1000 nM
Method in brief: as §1

PACLITAXEL = compound: CC(=O)O[C@H]1C(=O)[C@@]2(C)[C@H]([C@H](OC(=O)c3ccccc3)[C@]3(O)C[C@H](OC(=O)[C@H](O)[C@@H](NC(=O)c4ccccc4)c4ccccc4)C(C)=C1C3(C)C)[C@]1(OC(C)=O)CO[C@@H]1C[C@@H]2O [PACLITAXEL]; experiment: as above; details: exposure time: 5 days; dose range 0.5-1000 nM
Method in brief: as §1

GEFITINIB = compound: COc1cc2ncnc(Nc3ccc(F)c(Cl)c3)c2cc1OCCCN1CCOCC1 [GEFITINIB]; experiment: as above; details: exposure time: 5 days; dose range 0.5-1000 nM
Method in brief: as §1

CAMPTOTHECIN [3] = compound: T1, CAMPTOTHECIN; experiment: surviving fraction relative to DMSO-only wells; higher = less growth inhibition; details: exposure time: 5 days
Method in brief: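 Five days of continuous inhibitor exposure, at 0.5, 1, 5, 10, 50, 100, 500 and 1000 nM, followed a 24-hour period after log-phase tumour cell lines were seeded at 250–500 cells per well in 384-well plates. Surviving fraction was derived from CellTiter-Glo luminescence relative to the median of DMSO-only wells. Plates were read after 10 minutes at room temperature, and lines screened three times were kept only if replicate Pearson r >0.7 and median Z' >0.3.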

[4] = compound: CC(=O)c1c(C)c2cnc(Nc3ccc(N4CCNCC4)cn3)nc2n(C2CCCC2)c1=O; experiment: area under dose-response curve of surviving fraction (unscaled, Aref=0) (surviving fraction x log10(nM)); higher = more resistant; details: exposure time: 5 days; dose range 0.5-1000 nM
Method in brief: as §1

Test System	area under dose-response curve (YM155)	area under dose-response curve (CARBOPLATIN)	area under dose-response curve (CAMPTOTHECIN [1])	area under dose-response curve (CELECOXIB)	area under dose-response curve (OSI-906)	area under dose-response curve [2]	area under dose-response curve (PACLITAXEL)	area under dose-response curve (GEFITINIB)	surviving fraction (CAMPTOTHECIN [3]; 0.5 nM)	surviving fraction (CAMPTOTHECIN [3]; 1 nM)	surviving fraction (CAMPTOTHECIN [3]; 5 nM)	surviving fraction (CAMPTOTHECIN [3]; 10 nM)	surviving fraction (CAMPTOTHECIN [3]; 50 nM)	surviving fraction (CAMPTOTHECIN [3]; 100 nM)	surviving fraction (CAMPTOTHECIN [3]; 500 nM)	surviving fraction (CAMPTOTHECIN [3]; 1000 nM)	area under dose-response curve [4]
RDES SOFT TISSUE	1.4	3.72	0.518	3.85	2.76	2.44	1.03	3.69	0.776 ± 0.076	0.735 ± 0.1	0.027 ± 0.001	0.0233 ± 0.00058	0.0347 ± 0.0011	0.0297 ± 0.0015	0.0263 ± 0.0011	0.0357 ± 0.0011	–
ASKA SYNOVIAL	1.57	3.72	0.904	3.87	3.41	2.15	0.983	3.71	0.303 ± 0.029	0.641 ± 0.065	0.349 ± 0.032	0.242 ± 0.025	0.118 ± 0.005	0.21 ± 0.0046	0.157 ± 0.0082	0.231 ± 0.0075	–
CADOES1 SOFT TISSUE	3.1	–	0.642	2.95	3.12	2.12	1.87	3.02	0.886 ± 0.088	0.818 ± 0.1	0.0943 ± 0.0059	0.0577 ± 0.014	0.045 ± 0.0044	0.0337 ± 0.0064	0.0317 ± 0.0021	0.0297 ± 0.0015	2.79
HMT3552 BREAST	1.94	–	1.48	3.77	3.17	–	–	3.14	0.955 ± 0.056	0.944 ± 0.087	0.782 ± 0.031	0.422 ± 0.0095	0.224 ± 0.0076	0.215 ± 0.0061	0.0953 ± 0.005	0.0647 ± 0.0081	–
LM7 BONE	0.956	–	0.895	3.39	2.32	2.54	0.746	3.49	0.73 ± 0.032	0.691 ± 0.08	0.422 ± 0.0056	0.232 ± 0.015	0.145 ± 0.018	0.0813 ± 0.0095	0.024 ± 0.0035	0.0243 ± 0.00058	3.43
VCAP PROSTATE	0.945	3.55	1.76	–	2.78	2.52	0.687	3.75	0.879 ± 0.094	0.902 ± 0.052	0.801 ± 0.1	0.508 ± 0.034	0.412 ± 0.028	0.4023 ± 0.0023	0.219 ± 0.034	0.158 ± 0.069	–
HS57T BREAST	–	–	–	–	–	–	–	–	0.826 ± 0.044	0.849 ± 0.041	0.79 ± 0.011	0.505 ± 0.031	0.192 ± 0.007	0.149 ± 0.0066	0.0707 ± 0.0025	0.0653 ± 0.0081	–
VP229 BREAST	1.79	3.55	1.81	4.03	2.77	2.78	1.56	2.63	0.862 ± 0.018	0.912 ± 0.14	0.794 ± 0.17	0.662 ± 0.14	0.569 ± 0.037	0.348 ± 0.084	0.0443 ± 0.01	0.0333 ± 0.0031	–
SCC003 HEADNECK	1.38	–	1.77	3.59	3.08	2.69	1.13	2.89	0.817 ± 0.034	0.868 ± 0.085	0.849 ± 0.065	0.786 ± 0.094	0.361 ± 0.052	0.218 ± 0.029	0.07 ± 0.0061	0.054 ± 0.004	3.56
CHLA90 AUTONOMIC GANGLIA	1.31	–	1.21	3.34	2.73	2.51	1.13	2.9	0.318 ± 0.011	0.835 ± 0.041	0.584 ± 0.031	0.481 ± 0.05	0.173 ± 0.0053	0.268 ± 0.0099	0.133 ± 0.033	0.137 ± 0.027	3.14
MG63 BONE	1.43	–	0.972	3.57	3.11	2.52	0.809	3.47	0.873 ± 0.015	0.871 ± 0.028	0.434 ± 0.019	0.295 ± 0.0068	0.0393 ± 0.0065	0.024 ± 0.001	0.02 ± 0.001	0.023 ± 0.001	3.25
SUM159 BREAST	1.25	–	1.29	3.58	3.15	2.79	1.29	3.52	0.915 ± 0.014	0.937 ± 0.015	0.793 ± 0.018	0.26 ± 0.0036	0.1303 ± 0.00058	0.0763 ± 0.0031	0.03 ± 0.001	0.0283 ± 0.00058	3.03
MDAMB157 BREAST	1.53	–	1.4	–	2.98	2.36	0.654	3.2	0.857 ± 0.063	0.911 ± 0.034	0.674 ± 0.061	0.319 ± 0.058	0.26 ± 0.0076	0.247 ± 0.019	0.135 ± 0.0051	0.118 ± 0.014	3.21
BT20 BREAST	0.651	–	0.907	3.78	2.91	2.05	0.614	3.62	0.764 ± 0.067	0.744 ± 0.088	0.492 ± 0.089	0.197 ± 0.015	0.096 ± 0.0052	0.0537 ± 0.0075	0.0213 ± 0.0015	0.0257 ± 0.0025	–
143B BONE	–	–	–	–	–	2.93	1.1	–	0.911 ± 0.076	0.9815 ± 0.00071	0.947 ± 0.025	0.83 ± 0.07	0.12 ± 0.005	0.0595 ± 0.0064	0.021	0.0245 ± 0.00071	3.53
HCC202 BREAST	–	–	–	–	–	4.5	1.37	–	1.05 ± 0.027	0.866 ± 0.17	0.734 ± 0.082	0.691 ± 0.24	0.78 ± 0.14	0.767 ± 0.1	0.478 ± 0.0071	0.357 ± 0.0042	3.11
HMLE3 BREAST	1.02	–	0.888	3.53	2.79	2.59	0.754	–	0.304 ± 0.027	0.85433 ± 0.00058	0.485 ± 0.027	0.3 ± 0.0056	0.127 ± 0.026	0.0547 ± 0.0029	0.0203 ± 0.0015	0.0213 ± 0.00058	3.23
HS578T BREAST	2.61	–	1.81	3.16	3.11	2.72	0.471	3.1	0.811 ± 0.14	0.778 ± 0.18	0.729 ± 0.11	0.648 ± 0.091	0.464 ± 0.05	0.457 ± 0.054	0.228 ± 0.0098	0.212 ± 0.039	3.49
CCK81 LARGE INTESTINE	2.51	2.67	1.63	2.59	2.3	–	–	1.85	0.789 ± 0.034	0.805 ± 0.085	0.693 ± 0.16	0.542 ± 0.097	0.506 ± 0.051	0.416 ± 0.046	0.056 ± 0.007	0.0267 ± 0.0049	–
